Results taken from US20230073781A1, “Systemic administration of peptides for the treatment of spinal cord injury and/or for remyelination” (AXOLTIS PHARMA, priority 2019, published 2023).
Where a SMILES comes first, the peptide text is derived from it. Bridges are numbered along the chain shown (N, C = ends).

Columns and labels:
[1] = In vitro conversion in rat plasma; type: in vitro ADME; settings: preliminary
[2] = Preliminary PK study in rat; type: in vivo; settings: slow bolus IV injection of 49 mg/kg of NX210
Experimental: Therefore, NX210 PK in animals is followed by the measurement of its cyclic form NX218. First a preliminary PK study in rat was performed in order to validate the method for detecting NX218 in plasma then translated to monkey by performing a more robust PK study with repeated experiments. All PK studies were performed with NaCl 0.9% as vehicle.

| conversion by oxidation in rat plasma [1] | plasma concentration of NX218 over time [2] | Compound |
| --- | --- | --- |
| rapidly converted into NX218 | – | N=C(N)NCCC[C@H](NC(=O)[C@H](CO)NC(=O)[C@H](CS)NC(=O)[C@H](CO)NC(=O)[C@H](CO)NC(=O)[C@H](Cc1c[nH]c2ccccc12)NC(=O)CNC(=O)[C@H](CO)NC(=O)[C@@H](N)Cc1c[nH]c2ccccc12)C(=O)N[C@@H](CO)C(=O)N[C@@H](CS)C(=O)NCC(=O)O [NX210, W-S-G-W-S-S-C-S-R-S-C-G] (H-WSGWSSCSRSCG-OH) |
| – | impossible to quantify from 3 hours | N=C(N)NCCC[C@@H]1NC(=O)[C@H](CO)NC(=O)[C@@H](NC(=O)[C@H](CO)NC(=O)[C@H](CO)NC(=O)[C@H](Cc2c[nH]c3ccccc23)NC(=O)CNC(=O)[C@H](CO)NC(=O)[C@@H](N)Cc2c[nH]c3ccccc23)CSSC[C@@H](C(=O)NCC(=O)O)NC(=O)[C@H](CO)NC1=O [NX218] (H-WSGWSSCSRSCG-OH; disulfide 7-11) |
